From PubChem BioAssay AID1996
≈ marks a conversion by molar mass, not a printed value.

Details: buffer; pH 7.4; 200.0 µM

| SMILES | solubility kinetic [µg/mL] |
| --- | --- |
| O=C(Nc1cccnc1)C12CC3CC(CC(C3)C1)C2 | > 38.5 |
| O=c1oc(Nc2ccccc2Cl)nc2ccccc12 | 7.9 (≈ 29 µM) |
| O=C1NC(=O)C(c2ccc(Cl)cc2)N1 (stereo unspecified) | > 31.6 |
| CCCS(=O)(=O)N1CCCC(C(=O)Oc2ccc(OC)cc2)C1 (stereo unspecified) | 40.5 (≈ 119 µM) |
| Cc1cc(SCc2cccc(Cl)c2)nc(=O)[nH]1 | 39.9 (≈ 150 µM) |
| COC(=O)C1=C(N)Oc2c(oc(CO)cc2=O)C1c1ccc(F)cc1 (stereo unspecified) | > 52.1 |
| C=CCn1c(C)c(C(=O)OCC)c2cc(O)c3ccccc3c21 | < 0.7 |
| CCOCCn1c(-c2ccccc2)nc2ccccc21 | 39.5 (≈ 148 µM) |
| O=C(CN1c2cccc3cccc(c23)S1(=O)=O)NCc1ccc(F)cc1 | 27.4 (≈ 74 µM) |
| Cc1cccc(Nc2nnc(SCC(=O)NCC3CCCO3)s2)c1C (stereo unspecified) | > 56.8 |
| COc1ccc(Nc2ncc(C#N)c(N)n2)c(OC)c1 | 6.6 (≈ 24.3 µM) |
| N#Cc1ccccc1NC(=O)c1ccc2c(c1)OCCO2 | 37.4 (≈ 133 µM) |
| Cc1nc2ccccc2c(=O)n1-c1ccc(Cl)cc1[N+](=O)[O-] | 7.2 (≈ 22.8 µM) |
| CCOc1ccc(N2CC(C(=O)NC3CCSC3=O)CC2=O)cc1 (stereo unspecified) | 42.6 (≈ 122 µM) |
| CC1CCN(C(=O)COC(=O)c2ccc3ccccc3n2)CC1 | > 46.9 |
| CC(C)(C)C1CCC(=NNC(=O)C(=O)NCc2cccnc2)CC1 (stereo unspecified) | > 49.6 |
| O=C(COC(=O)c1ccccc1)NCCC1=CCCCC1 | 24.1 (≈ 83.9 µM) |
| Cc1cccc(Cn2c(=O)oc3ccc(C)cc32)c1 | 4.5 (≈ 17.8 µM) |
| NC(=O)C[n+]1cccc(/C=N/O)c1.[Cl-] | > 32.3 |
| CC(=O)NC(Cc1ccccc1)Cc1ccccc1 | > 38 |
| NS(=O)(=O)c1ccc(NC2=CC(=O)C(=O)c3ccccc32)cc1 | 13.6 (≈ 41.4 µM) |
| O=C(O)c1ccc(Cn2ccc3ccccc32)o1 | > 36.2 |
| O=C(Nc1cccc(F)c1)Nc1ccc2c(c1)CCC2 | < 0.3 |
| Cc1cc(F)c(F)c(C(=O)N2CCCCC2C)c1Cl (stereo unspecified) | 34.6 (≈ 120 µM) |
| O=C(Nc1cccc(Cl)c1)NC1CC2CCC1C2 (stereo unspecified) | 1.1 (≈ 4.15 µM) |

| SMILES | solubility kinetic [µg/mL] |
| --- | --- |
| CC(C)(C)C(=O)N(Cc1ccc(Cl)cc1)Cc1cccnc1 | 42.6 (≈ 134 µM) |
| CC(CCc1ccc(O)cc1)NC1c2ccccc2-c2ccccc21 (stereo unspecified) | 26.1 (≈ 79.2 µM) |
| O=C(CNC(=O)c1ccccc1F)Nc1ccc2c(c1)OCO2 | 23.2 (≈ 73.4 µM) |
| COC(=O)c1ccc(OC(=O)c2cnccn2)cc1 | > 38.7 |
| CC(C)Oc1cccc(C(=O)NC2=NCCS2)c1 | 22 (≈ 83.2 µM) |
| CN(c1ccc(OCC(=O)Nc2cc(Cl)ccc2C(=O)O)cc1)S(=O)(=O)c1ccc(F)cc1 | > 73.9 |
| Cc1ccc(C(=O)Nc2ccc3c(c2)OCCO3)c(Cl)c1 | 4.3 (≈ 14.2 µM) |
| CN1C(=O)/C(=C/c2ccc(OCc3ccc(F)cc3)cc2)N(C)C1=S | < 0.4 |
| O=C(Nc1ccc(-c2cn3c(n2)SCC3)cc1)c1ccco1 | 24.1 (≈ 77.4 µM) |
| O=C(NCc1cccnc1)C(=O)Nc1ccc([N+](=O)[O-])cc1 | 3.7 (≈ 12.3 µM) |
| CN(C(=O)COC(=O)c1cncc(Br)c1)C1CCCCC1 | > 53.3 |
| CCC(C)C(=O)Nc1ccc(S(=O)(=O)Nc2nccs2)cc1 (stereo unspecified) | > 50.9 |
| CCOC(=O)c1c(C)[nH]c(C(=O)N2CCC(C(=O)OCC)CC2)c1C | > 52.6 |
| CC(=O)Nc1ccc(SCC(=O)Nc2sccc2C#N)cc1 | 26.5 (≈ 80 µM) |
| Cc1ccc(CCC(=O)Nc2ccc(Cl)cc2)o1 | 23.9 (≈ 90.6 µM) |
| O=C(CCCN1C(=O)c2ccccc2C1=O)NCc1ccc(F)cc1 | 47.8 (≈ 140 µM) |
| CCOC(=O)c1ccccc1NC(=O)C1CSC2(C)CCC(=O)N12 (stereo unspecified) | > 52.3 |
| CC(Oc1ccccc1)C(=O)OCC(=O)NC(=O)NC1CCCCC1 (stereo unspecified) | 47.7 (≈ 137 µM) |
| O=C(O)Cn1c(=O)c(-c2ccccc2)nc2ccccc21 | > 42 |
| Cc1onc(-c2ccccc2)c1C(=O)N=C(N)c1ccc(C(F)(F)F)cc1 | < 0.3 |
| Cn1c(O)c(/C=C2\C=c3ccccc3=NC2=O)c(=O)n(C)c1=O | > 46.7 |
| O=C(N[C@@H](Cc1ccccc1)C(=O)OCc1ccccc1)c1ccco1 | 32.4 (≈ 92.7 µM) |
| CC(C#N)Sc1ncnc2sc(-c3ccccc3)cc12 (stereo unspecified) | 0.8 (≈ 2.69 µM) |
| CC(CNC(=O)COC(=O)c1ccco1)c1ccccc1 (stereo unspecified) | > 43.1 |
| CC(OC(=O)c1ccc(Cl)nc1)C(=O)Nc1ccc2c(c1)OCO2 (stereo unspecified) | 11.9 (≈ 34.1 µM) |

| SMILES | solubility kinetic [µg/mL] |
| --- | --- |
| CN(CCc1ccccc1)C1CCCN(S(=O)(=O)N(C)C)C1 (stereo unspecified) | > 48.8 |
| O=C(Nc1ccccc1Cl)NC1CCCCCCC1 | 0.4 (≈ 1.42 µM) |
| C/C(=C\c1ccc(F)cc1)C(=O)c1c(C)cc(C)[nH]c1=O | 35.6 (≈ 125 µM) |
| CC(=O)c1cnc(-c2ccccc2Cl)s1 | 8 (≈ 33.7 µM) |
| CCNc1nc(NCC)nc(NS(=O)(=O)c2ccc(N)cc2)n1 | 36.9 (≈ 109 µM) |
| COc1cc2c(cc1OC)C(c1ccccc1Br)NC(=O)C2 (stereo unspecified) | > 54.3 |
| Cl.O=C(CCN1CCOCC1)NNC(=O)c1ccc(Cl)c([N+](=O)[O-])c1 | > 59 |
| Cc1cc(N/C=C(\C#N)S(=O)(=O)c2ccccc2Cl)nc(C)n1 | 39.5 (≈ 113 µM) |
| COC(=O)c1cnc(N2CCOCC2)nc1C(F)(F)F | 35.3 (≈ 121 µM) |
| O=C(NC(=S)NCc1ccccc1)c1ccccc1Br | < 0.4 |
| C/C(=N\n1c(C)nc2ccccc2c1=O)c1ccc(N)cc1 | > 43.9 |
| CCOc1ncccc1C(=O)Nc1cc2c(cc1Br)OCCO2 | 6.5 (≈ 17.1 µM) |
| N#Cc1c(Cl)cccc1N1CCCC1 | 2 (≈ 9.68 µM) |
| Cc1cc(S(=O)(=O)Nc2cccc(Cl)c2)c(C)s1 | 37.4 (≈ 124 µM) |
| CCCC(=O)Nc1ccc(S(=O)(=O)Nc2cc(OC)ncn2)cc1 | > 52.6 |
| CC(=O)Nc1ccc(NC(=O)Nc2cccc3ccccc23)cc1 | 1.1 (≈ 3.44 µM) |
| CCN(CC)CCCN(C(=O)c1ccc(F)cc1)c1nc(-c2ccc(OC)cc2)cs1 | 62.1 (≈ 141 µM) |
| O=C1Nc2ccccc2C1C(C[N+](=O)[O-])c1ccccn1 (stereo unspecified) | > 42.5 |
| CCOc1ccc([N+](=O)[O-])cc1CNC1CCCCCCC1.Cl | > 51.4 |
| COc1ccc(C(=O)N2CCC(C(=O)Nc3ccc(C)cc3)CC2)cc1 | > 52.9 |
| O=C(Nc1cccc(-c2nc3ccccc3[nH]2)c1)c1ccccn1 | 6.2 (≈ 19.7 µM) |
| CCSc1nsc(NC(=O)Nc2ccc(F)cc2F)n1 | 1.7 (≈ 5.37 µM) |
| O=C(Nc1cccc2ncccc12)c1ccc([N+](=O)[O-])o1 | > 42.5 |
| O=S(=O)(c1ccc2c(c1)CCN2)N1CCOCC1 | > 40.2 |
| CCOc1ccccc1CNC(=O)CCc1cn(C)c2ccccc12 | 3.1 (≈ 9.21 µM) |

| SMILES | solubility kinetic [µg/mL] |
| --- | --- |
| COc1ccc(CNc2nc3ccccc3n2C)c(O)c1 | 10.7 (≈ 37.8 µM) |
| Cc1ccc(OCC(=O)Nc2ccc(CN3CCOCC3)cc2)cc1 | 27.8 (≈ 81.7 µM) |
| O=C(O)CNC(=O)C(c1ccccc1)c1ccccc1 | > 40.4 |
| O=C(CN1C(=O)NC2(CCCCC2)C1=O)NCCc1ccccc1 | > 49.4 |
| CCOC(=O)/C(C#N)=C1\CC2CCC1(C)C2(C)C (stereo unspecified) | 1.7 (≈ 6.87 µM) |
| CC(=O)N1CCN(Cc2ccc(Cl)nc2)CC1 | > 38.1 |
| CCn1c(C)c(C)c2cc(C(=O)NCCc3ccco3)ccc21 | 24.4 (≈ 78.6 µM) |
| COc1ccc(CNC(=O)CSC(=S)N2CCCC2)cc1 | 16.2 (≈ 49.9 µM) |
| CCc1cc2c(=O)oc(-c3ccc(F)cc3)nc2s1 | < 0.6 |
| CCOc1ccc(OCc2ccc(C(=O)N3CCCCC3)o2)cc1 | > 49.4 |
| CCOC(=O)/C(C#N)=C1\C(=O)N(Cc2ccccc2)c2ccccc21 | 1.3 (≈ 3.91 µM) |
| Cc1cccc(OCC(=O)NCCNC(=O)c2ccncc2)c1 | 42.3 (≈ 135 µM) |
| O=C(NNC(=O)c1cccnc1)NC1CCCCC1 | > 39.3 |
| CCOc1ccccc1C(=O)NCC(=O)OCC(=O)N1CCCC1 | > 50.2 |
| CC(C)OC(=O)/C(=C\c1ccccc1)NC(=O)c1ccccc1 | > 46.4 |
| CO/N=C(/CN1CCCCC1)c1ccc(Cl)cc1 | 8.9 (≈ 33.4 µM) |
| C=CCN1C(=O)C2(OCCO2)c2cc(C)ccc21 | > 36.8 |
| CC1CC(CN)CC(CO)C1 (stereo unspecified) | > 23.6 |
| O=C(c1ccc(Cl)c(S(=O)(=O)N2CCOCC2)c1)N1CCc2ccccc2C1 | > 63.1 |
| O=C(/C=C/c1ccccc1[N+](=O)[O-])OCC(=O)N1CCCC1 | > 45.6 |
| O=C(c1cc(-c2ccc(Cl)cc2Cl)on1)N1CCCC1 | 1.8 (≈ 5.78 µM) |
| COc1ccccc1C(C[N+](=O)[O-])c1c(N)n(C)c(=O)n(C)c1=O (stereo unspecified) | > 50.1 |
| CC(C)C/C(=N/O)c1cn(C)c2ccccc12 | 21.5 (≈ 93.4 µM) |
| CN(CCC1CCOCC1)Cc1nc(Cc2ccccc2F)no1 | > 50 |
| Nc1ccc(OCCc2ccccc2)cc1 | 28.3 (≈ 133 µM) |

| SMILES | solubility kinetic [µg/mL] |
| --- | --- |
| Cc1cc(NC(=O)c2coc(=O)c(Br)c2)ccc1C(C)C | 2.5 (≈ 7.14 µM) |
| O=C(COC(=O)/C=C/c1ccc([N+](=O)[O-])cc1)NCc1cccs1 | 4.2 (≈ 12.1 µM) |
| Cc1nc2ccccc2c(=O)n1-c1cccc([N+](=O)[O-])c1 | 36.4 (≈ 129 µM) |
| COc1cc(C(=O)NCC2CCCCC2)cc(OC)c1OC | 12.8 (≈ 41.6 µM) |
| O=C(CSc1nc2ncccc2[nH]1)NC1CCCCC1 | > 43.6 |
| O=C(O)c1cc(-c2ccccc2)nc(-c2ccccc2)c1 | > 41.3 |
| N#Cc1nc(-c2ccc([N+](=O)[O-])cc2)oc1N1CCCCC1 | 1.3 (≈ 4.36 µM) |
| CN1CC(=O)Nc2ccccc2C1=O | > 28.5 |
| C=CCc1cccc(CNc2nc3ccccc3n2C)c1O | 0.3 (≈ 1.02 µM) |
| CC1CC(OCC(O)CN2CCCCC2C)CC(C)(C)C1.Cl (stereo unspecified) | > 50.1 |
| COc1ccc(CNC(=O)c2csc3c2CCCC3)cc1 | 23.2 (≈ 77 µM) |
| O/N=C/c1cc(Br)cs1 | 16.9 (≈ 82 µM) |
| NC(=O)c1ccc(NC(=O)CSC(=O)c2ccccc2)cc1 | 16.4 (≈ 52.2 µM) |
| COc1cccc(NC(=S)N2c3ccccc3CC2C)c1 (stereo unspecified) | 20.3 (≈ 68 µM) |
| Cc1onc(-c2ccccc2)c1-c1ccnc(N)n1 | 33.8 (≈ 134 µM) |
| Cc1ccc(C(=O)Nc2ccccc2N2CCCCC2)cc1 | < 0.3 |
| CN(CC(=O)NCCc1ccccc1)Cc1ccco1 | > 40.9 |
| COc1cccc(C(=O)OCC(=O)c2[nH]c(C)c(C(C)=O)c2C)c1 | 2.1 (≈ 6.38 µM) |
| O=C(NC(=O)C(F)(F)F)Nc1ccc(S(=O)(=O)Nc2nccs2)cc1 | > 59.2 |
| COc1ccc(CCNCc2cccn2C)cc1OC.Cl | > 46.6 |
| C#CCSc1nc2sc3c(c2c(=O)n1C)CCC3 | < 0.3 |
